For this experiment, the target named is protein target (Homo sapiens (Human), UniProt Q06187). The experiment can be described thus: Reversibility of binding (compound in solution before and after perturbation of target, HPLC-MS/MS). The note with it: target in native (folded) state, target in excess of compound. The procedure:
The following approach was developed to differentiate compounds that form irreversible covalent bond with their targets, such as non-cyano containing acrylamide compounds, from compound that form reversible covalent bond i.e., compounds and/or pharmaceutically acceptable salts of the present disclosure. […] The reactions were then treated with perturbations including both denaturation with 5 M guanidine hydrochloride and digestion with trypsin, disrupting proper folding of the target. […] The concentration of compound in solution was assessed both preceding and following perturbation using high performance liquid chromatography (HPLC) coupled to tandem mass spectrometry.

Chain of protein target (Q06187 whole entry): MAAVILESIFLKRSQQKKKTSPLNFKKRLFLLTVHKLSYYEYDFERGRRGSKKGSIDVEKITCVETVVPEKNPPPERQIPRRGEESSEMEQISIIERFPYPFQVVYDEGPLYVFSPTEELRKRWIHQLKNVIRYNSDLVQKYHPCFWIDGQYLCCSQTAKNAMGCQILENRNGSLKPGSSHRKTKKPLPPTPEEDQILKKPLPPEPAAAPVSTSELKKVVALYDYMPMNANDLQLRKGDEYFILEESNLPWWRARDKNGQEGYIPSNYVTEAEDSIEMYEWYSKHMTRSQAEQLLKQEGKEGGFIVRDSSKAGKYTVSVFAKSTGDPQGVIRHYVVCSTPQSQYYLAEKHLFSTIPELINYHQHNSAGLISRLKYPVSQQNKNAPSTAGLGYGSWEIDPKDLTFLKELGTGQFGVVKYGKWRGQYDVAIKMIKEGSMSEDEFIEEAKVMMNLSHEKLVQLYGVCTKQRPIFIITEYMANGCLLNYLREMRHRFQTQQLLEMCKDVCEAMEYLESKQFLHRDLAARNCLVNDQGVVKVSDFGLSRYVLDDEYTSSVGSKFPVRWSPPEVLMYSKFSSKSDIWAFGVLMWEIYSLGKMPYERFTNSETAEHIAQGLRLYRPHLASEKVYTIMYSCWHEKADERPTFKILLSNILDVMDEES

`CN(C1COC1)C(C)(C)C=C(C#N)C(=O)N1CCC[C@H]1Cn1nc(-c2ccc(Oc3ccccc3)cc2F)c2c(N)ncnc21` [Example 10, 2-[(2S)-2-[[4-amino-3-(2-fluoro-4-phenoxy-phenyl)pyrazolo[3,4-d]pyrimidin-1-yl]methyl]pyrrolidine-1-carbonyl]-4-methyl-4-[methyl(oxetan-3-yl)amino]pent-2-enenitrile]: the “Compound in solution in the native state?” value is “no”.
